Like-named read-outs stand apart in the source and are kept apart here. Blank lines part the entries; values can stand above or below the compound they belong to.
Assays:
[1] = oral; cited from earlier work
[2] = rat; for % Dose recovered: 6-CF, oral
[3] = In vitro drug release study of microspheres (USP paddle); assay type: physicochemical; details: HCl buffer pH 1.2, first hr
Method: 900 ml of HCl buffer (pH 1.2) was used as dissolution medium for first hr and phosphate buffered saline (PBS, pH 6.8) was used for next 11 hrs. The dried microspheres were filled in hard gelatin capsules and were placed in dissolution vessels. 5 ml sample was withdrawn at various time intervals and volume of the media was replenished with an equal amount of dissolution media. The samples were then analyzed spectroflurometrically.

Erythrocytes = test: Hemolytic toxicity assay; assay type: cell-based; details: 1 hr of incubation at 37°C, water = 100%
Method: The procedure from literature was followed to perform the hemolytic toxicity studies.^19 Blood from healthy donors was collected and anticogulated with 3% sodium citrate. Erythrocytes were separated from blood plasma by centrifugation (3000×g, 5 min) and suspended in phosphate buffer saline (PBS) of pH 7.4. […] 0.5 ml 2% w/v dispersion of microspheres formulations in PBS (pH 7.4) was added to 4.5 ml of normal saline and interacted with 1 ml RBC suspension. […] After 1 hr, mixture was centrifuged and supernatants were taken and diluted with an equal volume of normal saline and absorbance was taken at 540 nm against supernatant of normal saline diluted similarly as blank. The percentage hemolysis was thus determined for each sample by taking absorbance of water as 100% hemolytic sample.

in vivo = details: Sprague-Dawley, rat, po
Method: Rats were kept on fasting 12 hours before drug administration and until 24 hours post dosing. Water ad libitum was given throughout the study. […] Second, third, fourth, fifth and sixth group received oral administration of chitosan, thiolated chitosan, trimethyl chitosan, CARBOPOL® or METHOCEL® microspheres, respectively. […] Supernatant was collected and acetonitrile was added to precipitate the proteins. The precipitated proteins were settled by centrifugation at 2000 rpm for 15 min. The supernatant was collected and filtered through a 0.45 μm filter into volumetric flask and drug concentration was determined by spectrofluorometric assay.

[4] = Acyclovir IR 400 mg single dose; From Ref. 35; cited from earlier work

Compound: Cn1c(=O)c2[nH]cnc2n(C)c1=O [theophylline]
bioavailability [1]: 100%

% Dose recovered ([2]; 1. Stomach, 2 hr): 52.2% | % Dose recovered ([2]; 1. Stomach, 6 hr): 0% | % Dose recovered ([2]; 1. Stomach, 8 hr): 0% | % Dose recovered ([2]; 1. Stomach, 10 hr): 0% | % Dose recovered ([2]; 2. Duodenum, 2 hr): 10.9% | % Dose recovered ([2]; 2. Duodenum, 4 hr): 19.5% | % Dose recovered ([2]; 2. Duodenum, 6 hr): 0% | % Dose recovered ([2]; 2. Duodenum, 8 hr): 0% | % Dose recovered ([2]; 2. Duodenum, 10 hr): 0% | % Dose recovered ([2]; 3. Jejunum, 2 hr): 0% | % Dose recovered ([2]; 3. Jejunum, 4 hr): 10.6% | % Dose recovered ([2]; 3. Jejunum, 6 hr): 0% | % Dose recovered ([2]; 3. Jejunum, 8 hr): 0% | % Dose recovered ([2]; 3. Jejunum, 10 hr): 0% | % Dose recovered ([2]; 4. Jejunum, 2 hr): 0% | % Dose recovered ([2]; 4. Jejunum, 4 hr): 5.8% | % Dose recovered ([2]; 4. Jejunum, 6 hr): 6.9% | % Dose recovered ([2]; 4. Jejunum, 8 hr): 0% | % Dose recovered ([2]; 4. Jejunum, 10 hr): 0% | % Dose recovered ([2]; 5. Jejunum, 2 hr): 0% | % Dose recovered ([2]; 5. Jejunum, 4 hr): 0% | % Dose recovered ([2]; 5. Jejunum, 6 hr): 3.9% | % Dose recovered ([2]; 5. Jejunum, 8 hr): 0% | % Dose recovered ([2]; 5. Jejunum, 10 hr): 0% | % Dose recovered ([2]; 6. Ileum, 2 hr): 0% | % Dose recovered ([2]; 6. Ileum, 4 hr): 0% | % Dose recovered ([2]; 6. Ileum, 6 hr): 0% | % Dose recovered ([2]; 6. Ileum, 8 hr): 5.9% | % Dose recovered ([2]; 6. Ileum, 10 hr): 0% | % Dose recovered ([2]; 7. Remaining Intestine, 2 hr): 0% | % Dose recovered ([2]; 7. Remaining Intestine, 4 hr): 0% | % Dose recovered ([2]; 7. Remaining Intestine, 6 hr): 0% | % Dose recovered ([2]; 7. Remaining Intestine, 8 hr): 0% | % Dose recovered ([2]; 7. Remaining Intestine, 10 hr): 0% | % recovered from stomach following oral administration ([2]; time not stated): more than 30%
Compound: O=C(O)c1ccc2c(c1)C1(OC2=O)c2ccc(O)cc2Oc2cc(O)ccc21 [6-CF solution, 6-Carboxyfluorescein]

% drug released in first 1 hr [3]: 95.3±4.1% | AUC (in vivo): 282 ± 28 ng·h/mL | Cmax (in vivo; 5 mg/kg): 53.1 ± 6.8 ng/mL | MRT (in vivo; 5 mg/kg): 5.4 ± 0.5 h | bioavailability (in vivo; 5 mg/kg): 100%
Compound: Nc1nc2c(ncn2COCCO)c(=O)[nH]1 [Acyclovir]
% Hemolysis (Erythrocytes): 10.2 ± 1.4% | Area under plasma concentration profile (AUC) [4]: 3307.5 ng·h/mL | Time to maximum plasma concentration (tmax) [4]: 1.4 h | bioavailability [1]: 10-20%
